Assay results reported in US20060029654A1, “Analgesic patch for sports injury rehabilitation medicine and method to alleviate pain” (priority 2004, published 2006).

Test system: pain in the right shoulder and right lateral thigh (right rotator cuff tendonitis and right lateral fasciaitis)
Details: prior treatment history; injection into the pain trigger zone

C[C@]12CCC(=O)C=C1CC[C@@H]1[C@@H]2C(=O)C[C@@]2(C)[C@H]1CC[C@]2(O)C(=O)CO [cortisone]
duration of temporary pain relief: 4 to 6 weeks
